Laboratory results: patent US8895761B2, “4-phenylpyrane-3,5-diones, 4-phenylthiopyrane-3,5-diones and 2-phenylcyclohexane-1,3,5-triones as herbicides” (Syngenta Limited, priority 2007, dated 2014)

Tests used:
Type in all cases: in vivo
[1] = test system: Setaria faberi (SETFA); experiment: Post-emergence herbicidal glasshouse test, Setaria faberi; conditions: Setaria faberi, 312 h, rate 250 g/ha, evaluated after 13 days, scale 100 = total damage to plant, 0 = no damage
Description: (§1) Seeds of a variety of test species were sown in standard soil in pots. After cultivation for one day (pre-emergence) or after 8 days cultivation (post-emergence) under controlled conditions in a glasshouse (at 24/16° C., day/night; 14 hours light; 65% humidity), the plants were sprayed with an aqueous spray solution derived from the formulation of the technical active ingredient in acetone/water (50:50) solution containing 0.5% Tween 20 (polyoxyethelyene sorbitan monolaurate, CAS RN 9005-64-5). The test plants were then grown in a glasshouse under controlled conditions in a glasshouse (at 24/16° C., day/night; 14 hours light; 65% humidity) and watered twice daily. After 13 days for pre and post-emergence, the test was evaluated ([…] to plant; 0=no damage to plant).
(§2) Setaria faberi (SETFA), Lolium perenne (LOLPE), Alopecurus myosuroides (ALOMY), Echinochloa crus-galli (ECHCG) and Avena fatua (AVEFA).

[2] = test system: Echinochloa crus-galli (ECHCG); experiment: Post-emergence herbicidal glasshouse test, Echinochloa crus-galli; conditions: Echinochloa crus-galli, 312 h, rate 250 g/ha, evaluated after 13 days, scale 100 = total damage to plant, 0 = no damage
Outline: (§3)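 Plant damage is rated 13 days after treatment, from 0 (none) to total kill. Application is to soil one day post-sowing for pre-emergence, or to 8-day-old plants for post-emergence, using an aqueous spray of compound formulated in 50:50 acetone/water containing 0.5% Tween 20.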

[3] = test system: Alopecurus myosuroides (ALOMY); experiment: Post-emergence herbicidal glasshouse test, Alopecurus myosuroides; conditions: Alopecurus myosuroides, 312 h, rate 250 g/ha, evaluated after 13 days, scale 100 = total damage to plant, 0 = no damage
Outline: as §3

[4] = test system: Setaria faberi (SETFA); experiment: Pre-emergence herbicidal glasshouse test, Setaria faberi; conditions: Setaria faberi, 312 h, rate 250 g/ha, evaluated after 13 days, scale 100 = total damage to plant, 0 = no damage
Description: as §1, §2

[5] = test system: Avena fatua (AVEFA); experiment: Post-emergence herbicidal glasshouse test, Avena fatua; conditions: Avena fatua, 312 h, rate 250 g/ha, evaluated after 13 days, scale 100 = total damage to plant, 0 = no damage
Outline: as §3

[6] = test system: Alopecurus myosuroides (ALOMY); experiment: Pre-emergence herbicidal glasshouse test, Alopecurus myosuroides; conditions: Alopecurus myosuroides, 312 h, rate 250 g/ha, evaluated after 13 days, scale 100 = total damage to plant, 0 = no damage
Outline: as §3

[7] = test system: Echinochloa crus-galli (ECHCG); experiment: Pre-emergence herbicidal glasshouse test, Echinochloa crus-galli; conditions: Echinochloa crus-galli, 312 h, rate 250 g/ha, evaluated after 13 days, scale 100 = total damage to plant, 0 = no damage
Outline: as §3

[8] = test system: Avena fatua (AVEFA); experiment: Pre-emergence herbicidal glasshouse test, Avena fatua; conditions: Avena fatua, 312 h, rate 250 g/ha, evaluated after 13 days, scale 100 = total damage to plant, 0 = no damage
Outline: as §3

[9] = test system: Lolium perenne (LOLPE); experiment: Post-emergence herbicidal glasshouse test, Lolium perenne; conditions: 312 h, rate 250 g/ha, evaluated after 13 days, scale 100 = total damage to plant, 0 = no damage
Outline: as §3

[10] = test system: Lolium perenne (LOLPE); experiment: Pre-emergence herbicidal glasshouse test, Lolium perenne; conditions: 312 h, rate 250 g/ha, evaluated after 13 days, scale 100 = total damage to plant, 0 = no damage
Outline: as §3

Row | SMILES | pest or weed control at 250 g/ha [1] [%] | pest or weed control at 250 g/ha [2] [%] | pest or weed control at 250 g/ha [3] [%] | pest or weed control at 250 g/ha [4] [%] | pest or weed control at 250 g/ha [5] [%] | pest or weed control at 250 g/ha [6] [%] | pest or weed control at 250 g/ha [7] [%] | pest or weed control at 250 g/ha [8] [%] | pest or weed control at 250 g/ha [9] [%] | pest or weed control at 250 g/ha [10] [%]
1 | CCc1cc(-c2ccccc2)ccc1C1=C(O)[C@@]2(C)CC[C@H](O2)C1=O (racemic) [Compound A-4] | 60 | 80 | 80 | 20 | 0 | 40 | 40 | 0 |  | 
2 | CCc1cc(-c2ccc(Cl)cc2)ccc1C1=C(O)[C@@]2(C)CC[C@H](O2)C1=O (racemic) [Compound A-5] | 100 | 100 | 90 | 70 | 70 | 30 | 40 | 0 |  | 
3 | CCc1cc(-c2ccc(C)cc2)ccc1C1=C(O)[C@@]2(C)CC[C@H](O2)C1=O (racemic) [Compound A-6] | 80 | 80 | 70 | 0 | 30 | 0 | 0 | 0 |  | 
4 | Cc1cc(-c2ccc(Cl)cc2)ccc1C1=C(O)[C@@]2(C)CC[C@H](O2)C1=O (racemic) [Compound A-10] | 100 | 100 | 90 | 0 | 50 | 0 | 30 | 0 |  | 
5 | CCc1cc(-c2ccc(Cl)cc2)cc(CC)c1C1=C(O)[C@@]2(C)CC[C@H](O2)C1=O (racemic) [Compound A-11] | 100 | 100 | 100 | 100 | 100 | 80 | 100 | 100 |  | 
6 | CCc1cc(-c2ccc(Cl)cc2Cl)cc(CC)c1C1=C(O)[C@@]2(C)CC[C@H](O2)C1=O (relative stereo) [Compound A-34] | 90 | 70 | 30 |  | 20 |  |  |  |  | 
7 | CCc1cc(-c2ccc(F)c(F)c2F)ccc1C1=C(O)C(C)(C)SC(C)(C)C1=O [Compound B-9] |  | 40 | 60 |  | 80 | 10 | 0 | 0 | 60 | 10
8 | CCc1cc(-c2ccc(F)c(F)c2)ccc1C1=C(O)C(C)(C)[S+]([O-])C(C)(C)C1=O (stereo not drawn) [Compound B-11] |  | 40 | 60 |  | 70 | 50 | 0 | 20 | 60 | 40
9 | CCc1cc(-c2ccc(F)c(OC)c2)ccc1C1=C(O)C(C)(C)S(=O)(=O)C(C)(C)C1=O [Compound B-16] |  | 80 | 50 |  | 80 | 20 | 40 | 30 | 60 | 40
10 | CCc1cc(-c2ccc(F)c(F)c2)ccc1C1=C(O)C(C)(C)S(=O)(=O)C(C)(C)C1=O [Compound B-17] |  | 50 | 80 |  | 70 | 50 | 10 | 10 | 70 | 50
11 | CCc1cc(-c2cc(F)c(F)c(F)c2)ccc1C1=C(O)C(C)(C)S(=O)(=O)C(C)(C)C1=O [Compound B-18] |  | 80 | 70 |  | 90 | 30 | 30 | 30 | 80 | 50
12 | CCc1cc(-c2ccc(F)c(OC)c2)ccc1C1=C(O)C(C)(C)C(=O)C(C)(C)C1=O [Compound C-3] |  | 70 | 30 |  | 50 | 10 | 10 | 0 | 60 | 10
13 | CCc1cc(-c2ccc(F)c(F)c2)ccc1C1=C(O)C(C)(C)C(=O)C(C)(C)C1=O [Compound C-4] |  | 70 | 80 |  | 30 | 20 | 0 | 0 | 80 | 20
14 | CCc1cc(-c2cc(F)c(F)c(F)c2)ccc1C1=C(O)C(C)(C)C(=O)C(C)(C)C1=O [Compound C-5] |  | 100 | 100 |  | 90 | 30 | 0 | 20 | 70 | 40
15 | CCc1cc(-c2cc(Cl)ccc2OC)ccc1C1=C(O)C(C)(C)C(=O)C(C)(C)C1=O [Compound C-6] |  | 50 | 20 |  | 10 | 40 | 0 | 10 | 20 | 70
16 | CCc1cc(-c2cc(F)c(F)cc2F)ccc1C1=C(O)C(C)(C)C(=O)C(C)(C)C1=O [Compound C-7] |  | 40 | 40 |  | 10 | 30 | 0 | 0 | 60 | 20
17 | CCc1cc(-c2ccc(F)c(F)c2F)ccc1C1=C(O)C(C)(C)C(=O)C(C)(C)C1=O [Compound C-8] |  | 60 | 60 |  | 10 | 10 | 30 | 0 | 60 | 30
18 | CCc1cc(-c2ccc(Cl)c(Cl)c2)ccc1C1=C(OC(C)=O)C(C)(C)OC(C)(C)C1=O [Compound D-2] |  | 90 | 70 |  | 40 | 30 | 90 | 20 | 80 | 100
19 | CCc1cc(-c2ccc(F)cc2)ccc1C1=C(OC(C)=O)C(C)(C)OC(C)(C)C1=O [Compound D-3] |  | 100 | 100 |  | 80 | 90 | 100 | 70 | 100 | 100
20 | CCc1cc(-c2ccc(F)cc2)ccc1C1=C(OC(=O)C(C)(C)C)C(C)OC(C)(C)C1=O [Compound D-9] |  | 80 | 70 |  | 10 | 60 | 50 | 0 | 80 | 90
